# Experimental data as given in patent US5246940A, “Substituted N-biphenylyl lactams” (Ortho Pharmaceutical Corporation, priority 1993, dated 1993).
# Counter-ions that a name gives are not always drawn. Like-named read-outs stand apart in the source and are kept apart here.
# What was measured:
# [1] = molecular target: T1, angiotensin II-induced vasoconstriction (Oryctolagus cuniculus, UniProt P34976); assay: Angiotensin II Antagonist Dose-Response in Rabbit Thoracic Aorta (Schild plot); set-up: from tissue; host or cells: thoracic aorta rings of New Zealand white rabbits; species or system New Zealand white rabbits; conditions: for Kb: read-out: pA2 (converted)
# T1 sequence (P34976 1-359): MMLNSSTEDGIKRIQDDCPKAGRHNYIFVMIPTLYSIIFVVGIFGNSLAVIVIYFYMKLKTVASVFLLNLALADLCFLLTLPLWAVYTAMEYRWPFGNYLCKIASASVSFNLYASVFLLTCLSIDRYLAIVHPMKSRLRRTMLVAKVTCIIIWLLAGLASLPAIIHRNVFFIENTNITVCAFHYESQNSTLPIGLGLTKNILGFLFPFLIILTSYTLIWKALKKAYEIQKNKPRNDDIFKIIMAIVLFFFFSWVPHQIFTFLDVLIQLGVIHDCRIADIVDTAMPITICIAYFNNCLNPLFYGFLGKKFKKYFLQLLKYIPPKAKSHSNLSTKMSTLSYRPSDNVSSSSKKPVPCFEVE
# Source text: Angiotensin II Antagonist Dose-Response in Rabbit Thoracic Aorta Purpose: […] [Chiu, […]., Price, W. A., Wong, […]., Duncia, […]., Yoo, S. E., Johnson, A. L., and […].: Nonpeptide angiotensin II receptor antagonists. VII. Cellular and Biochemical pharmacology of […], an orally active antihypertensive agent. J. Pharmacol. Exp. Ther., 252,726 (1990)]. Solution Preparation: […] For each test an aliquot is freshly thawed and serially diluted with Krebs bicarbonate buffer to provide stock solutions of angiotensin II in buffer for addition to the tissue baths. […] Procedure: 1.8 to 2.3 kg New Zealand white rabbits are sacrificed with an intravenous sodium pentobarbital overdose and the thoracic aorta gently dissected free from the aortic root to the level of the diaphragm, into ice cold Krebs bicarbonate buffer. The aorta is gently freed of clots and adventitia and cleanly cut into 5 mm segments. Each ring is suspended from a Gould isotonic force transducer in a tissue bath containing 15 mL oxygenated Krebs bicarbonate buffer regulated at 37° C. […] The test compound is then given to separate rings at different antagonist concentrations (n=2 rings/test concentration) in order to asses antagonist dose-response. The angiotensin II cumulative dose-response is then repeated in the presence of the test compound. Analysis: Angiotensin II vasoconstrictor tension in grams is expressed as a percent of maximal contraction for the before and after test compound angiotensin II dose-responses. […] See results in Table 2.
# Angiotensin Receptor [2] = assay: Screening Potential Angiotensin Receptor Antagonists in Salt-Depleted Normotensive Rats (blood pressure after oral dosing); assay type: in vivo, Sprague-Dawley rats; conditions: for Antihypertensive Activity (p.o.): active @ dose: oral, salt-depleted normotensive rats, active = MAP decrease of 10 or more mmHg vs concurrent control
# Source text: Test Procedure for Screening Potenital Angiotensin Receptor Antagonists in Salt-Depleted Normotensive Rats
# Purpose: This test is designed to detect hypotensive effects of a compound after oral dosing in normotensive animals made renin-dependent by salt depletion. [Wong, P. C., Price, W. A., Chiu, A. T., Duncia, J. V., Carini, D. J., Wexler, R. R., Johnson, A. L., and Timmermans, P. B. M. W. M.: Nonpeptide angiotensin II receptor antagonists. VIII. […] J. Pharmacol. Exp. Ther., 252,726 (1990)]
# Solution Preparation: Oral 50 mg/kg furosemide doses are prepared from 10 mg/mL solutions of the intravenous pharmaceutical preparation (Lasix injection, Hoechst-Roussel Pharmaceutical). Test compound is uniformly suspended in 1% methylcellulose.
# (§1) Method: Male 350-450 g Sprague-Dawley rats are implanted with teflon microcannulae via the middle caudal artery under 20 mg/kg intravenous brevital anesthesia and permitted a 4-7 day surgical recovery period. Throughout recovery and testing animals are individually housed unrestrained in standard rat metabolism cages and receive continuous 0.5 mL/hour intra-arterial 0.25 N saline infusion through a spring-shielded swivelling tether connected to an infusion/blood pressure recording system to maintain arterial cannula patency. Animals are maintained on Low Sodium (0.03%) Pruina Rat Chow #5881 throughout the study. After the recovery period animals are given oral 50 mg/kg furosemide (Lasix, Hoechst-Roussel Pharmaceutical) doses on two consecutive days to produce marked diuresis and plasma volume depletion that makes maintenance of normal blood pressure highly dependent on function of the renin-angiotensin-aldosteronesystem. Three hours after the second furosemide dose, rats are given test compound uniformly suspended in 1% methylcellulose (n=3/dose level) or 1 mL 1% methylcellulose vehicle (n=3) orally by gavage and blood pressure is continuously recorded for 24 h using a Buxco computerized data recording system. Compound-induced changes in blood pressure are compared to concurrent vehicle control blood pressures in order to detect drug effect.
# Interpretation: Prior to salt depletion, normotensive rats typically show a plasma renin activity (PRA), measured by Radioimmuno Assay (RIA) of Angiotensin I (as ng Angiotensin I/mL plasma/hour) and yields a RIA of 0.7. After the salt-depletion protocol PRA values taken 3 hour after the furosemide dose have risen to about 7.4. […] PRA is increased by this DuP-753 treatment to about 41.4.
# Compounds that decrease blood pressure 10 or more mmHg (MAP) compared to concurrent control after oral dosing are considered active in this test. Maximum possible response is about-35 mmHg. See results in Table 2.
# [3] = molecular target: T1, angiotensin II-induced vasoconstriction; assay: Inhibition of Angiotensin II Dose-Response in Rabbit Thoracic Aorta; set-up: from tissue; host or cells: thoracic aorta rings of New Zealand white rabbits; species or system New Zealand white rabbits; conditions: for inhibition at 10 µM: read-out: % Inh @ 10^-5 M; for EC90: contraction, 95% C.L. in brackets
# Protocol: VII. Cellular and Biochemical pharmacology of DuP 753, an orally active antihypertensive agent. J. Pharmacol. Exp. Ther., 252, 726 (1990)]
# Test compounds are diluted in dimethylsulfoxide vehicle such that a 50 μL addition to the tissue bath produces a final bath concentration of 1×10^-5 M compound in Krebs-bicarbonate buffer (baths contain 15 mL Krebs-bicarbonate buffer).
# Procedure: 1.8 to 2.3 kg New Zealand white rabbits are sacrificed with an intravenous sodium pentobarbital overdose and the thoracic aorta gently dissected free from the aortic root to the level of the diaphragm, into ice cold Krebs bicarbonate buffer. The aorta is gently freed of clots and adventitia and cleanly cut into 5 mm segments. Each ring is suspended from a Gould isotonic force transducer in a tissue bath containing 15 mL oxygenated Krebs bicarbonate buffer regulated at 37° C. Initial tenison is adjusted to 4.0 g and equilibrated over three 20-minute wash periods with fresh Krebs-bicarbonate buffer to achieve a baseline tension of 3.0 g. […] […] […] In addition, since the test compounds are dissolved in DMSO, DMSO alone is tested in two rings as a vehicle control in each screening experiment.
# Angiotensin Receptor [4] = assay: Screening Potential Angiotensin Receptor Antagonists in Salt-Depleted Normotensive Rats (blood pressure after oral dosing); assay type: in vivo, Sprague-Dawley rats
# [5] = tested on: plasma renin activity (PRA); assay: Plasma renin activity by Radioimmuno Assay of Angiotensin I in salt-depleted rats; assay type: in vivo, Sprague-Dawley rats; conditions: salt-depleted animals; about 7.4 after salt depletion before treatment
# Protocol: as §1, with “After the recovery period animals are given oral 50 mg/kg furosemide (Lasix, Hoechst-Roussel Pharmaceutical) doses on two consecutive days to produce marked diuresis and plasma volume depletion that makes maintenance of normal blood pressure highly dependent on function of the renin-angiotensin-aldosteronesystem.” left out, “Compound-induced changes in blood pressure are compared to concurrent vehicle control blood pressures in order to detect drug effect.” left out
# Interpretation: Prior to salt depletion, normotensive rats typically show a plasma renin activity (PRA), measured by Radioimmuno Assay (RIA) of Angiotensin I (as ng Angiotensin I/mL plasma/hour) and yields a RIA of 0.7. […]
Compound,Kb [1],inhibition at 10 µM [3],Antihypertensive Activity (p.o.): active @ dose (Angiotensin Receptor [2]),also measured
"CCOC(=O)C=C1C2C3CCCC(CC3)C2C(=O)N1Cc1ccc(-c2ccccc2-c2nnn[nH]2)cc1 (stereo not drawn) [ag, 3-Carbethoxymethyliden-2-[4-(2-tetrazolophenyl)benzyl]-4,7-endopropylen-1,3,4,5,6,7-hexahydro-1-oxoisoindole Dihydrate]",,100%,30 mpk,
"CCOC(=O)C=C1CC(C)(CC)CC(=O)N1Cc1ccc(-c2ccccc2-c2nnn[nH]2)cc1 (stereo not drawn) [ae, 6-Carbethoxymethyliden-4-ethyl-4-methyl-1-[4-(2-tetrazolophenyl)benzyl]piperidine-2-one Pyridinium Salt, 1.25 Hydrate]",1.07 nM,100%,10 mpk,
CCCCc1nc(Cl)c(CO)n1Cc1ccc(-c2ccccc2-c2nn[nH]n2)cc1 [DuP-753],,,,"blood pressure response in normotensive rats that have not been salt-depleted (Angiotensin Receptor [4]): does not change; blood pressure decrease (mean arterial pressure, MAP) (Angiotensin Receptor [2]; salt-depleted animals, typical response): about 35 mmHg; plasma renin activity (PRA) after treatment [5]: about 41.4 ng Angiotensin I/mL plasma/hour"
"CCOC(=O)C=C1N(Cc2ccc(-c3ccccc3-c3nnn[nH]3)cc2)C(=O)CC12CCCCCC2 [ad, 5-Carbethoxymethylidine-4-spirocycloheptyl-1-[4-(2-tetrazolophenyl)benzyl]pyrrolidin-2-one Pyridinium Salt, 1.3 Hydrate]",4.37 nM,100%,30 mpk,
angiotensin II [reference compound],,,,"EC90 ([3]; read-out: Mean ED90 for angiotensin II after DMSO vehicle treatment, after DMSO vehicle): 5.88 nM; EC90 ([3]; read-out: Mean ED90 for angiotensin II before DMSO vehicle treatment, before DMSO vehicle): 4.44 nM"
"CCOC(=O)C=C1N(Cc2ccc(-c3ccccc3-c3nnn[nH]3)cc2)C(=O)CC12CCCCC2 [ac, 5-Carbethoxymethyliden-4-spirocyclohexyl-1-[4-(2-tetrazolophenyl)benzyl]pyrrolidin-2-one Pyridinium Salt,1.2 Hydrate]",,100%,30 mpk,"pA2 ([1]; Schild plot vs angiotensin II, rabbit thoracic aorta rings): 7.93"
"CCOC(=O)C=C1N(Cc2ccc(-c3ccccc3-c3nnn[nH]3)cc2)C(=O)CC12CCCC2 [af, 5-Carbethoxymethylidine-4-spirocyclopentyl-1-[4-(2-tetrazolophenyl)benzyl]pyrrolidin-5-one Pyridinium Salt, 1.4 Hydrate]",3.63 nM,100%,30 mpk,

# More lines, main results first:
Kb [1],inhibition at 10 µM [3],Compound,Antihypertensive Activity (p.o.): active @ dose (Angiotensin Receptor [2]),also measured
14.1 nM,100%,"CCOC(=O)C=C1CC2(CCCC2)CC(=O)N1Cc1ccc(-c2ccccc2-c2nnn[nH]2)cc1 [t, 6-Carbethoxymethyliden-4-spirocyclopentyl-1-[4-(2-tetrazolophenyl)benzyl]piperidin-2-one Pyridinium Salt]",30 mpk,
6.92 nM,99%,"CCOC(=O)C=C1C2C3C=CC(CC3)C2C(=O)N1Cc1ccc(-c2ccccc2-c2nnn[nH]2)cc1 (stereo not drawn) [u, 3-Carbethoxymethyliden-2-[4-(2-tetrazolophenyl)benzyl]-4,7-endoethylen-1,3,4,7-tetrahydro-1-oxoisoindole]",30 mpk,
14.1 nM,100%,"CCOC(=O)C=C1C2C3C=CC(CCC3)C2C(=O)N1Cc1ccc(-c2ccccc2-c2nnn[nH]2)cc1 (stereo not drawn) [ah, 3-Carbethoxymethyliden-2-[4-(2-tetrazolophenyl)benzyl]-4,7-endopropylen-1,3,4,7-tetrahydro-1-oxoisoindole Pyridinium Salt, 1.75 Hydrate]",> 30 mpk,
4.47 nM,100%,"CCOC(=O)C=C1C2C3C=CC(C3)C2C(=O)N1Cc1ccc(-c2ccccc2-c2nnn[nH]2)cc1 (stereo not drawn) [v, 3-Carbethoxymethyliden-2-[4-(2-tetrazolophenyl)benzyl]-4,7-endomethylen-1,3,4,7-tetrahydro-1-oxoisoindole Pyridinium Salt]",,
,0%,"CCOC(=O)C=C1C2C3C=CC(C3)C2C(=O)N1Cc1ccc(-c2ccccc2C(=O)OC)cc1 (stereo not drawn) [m, 3-Carbethoxymethyliden-2-[4-(2-carbomethoxyphenyl)benzyl]-4,7-endomethylen-1,3,4,7-tetrahydro-1-oxoisoindole]",,
,3%,"CCOC(=O)C=C1C2C3C=CC(CC3)C2C(=O)N1Cc1ccc(-c2ccccc2C#N)cc1 (stereo not drawn) [p, 3-Carbethoxymethyliden-2-[4-(2-cyanophenyl)benzyl]-4,7-endoethylen-1,3,4,7-tetrahydro-1-oxoisoindole]",,
39.8 nM,100%,"CCOC(=O)C=C1CC(C)(C)CC(=O)N1Cc1ccc(-c2ccccc2-c2nnn[nH]2)cc1 [s, 6-Carbethoxymethyliden-4,4-dimethyl-1-[4-(2-tetrazolophenyl)benzyl]piperidin-2-one Pyridinium salt]",30 mpk,
1.05 nM,100%,"CCOC(=O)C=C1C2C3CCC(C3)C2C(=O)N1Cc1ccc(-c2ccccc2-c2nnn[nH]2)cc1 (stereo not drawn) [z, 3-Carbethoxymethyliden-2-[4-2-(tetrazolophenyl)benzyl]-4,7-endomethylen-1,3,4,5,6,7-hexahydro-1-oxoisoindole]",30 mpk,
,0%,"CCOC(=O)C=C1C2C3CCC(C3)C2C(=O)N1Cc1ccc(-c2ccccc2C(=O)OC)cc1 (stereo not drawn) [y, 3-Carbethoxymethyliden-2-[4-(2-carbomethoxyphenyl)benzyl]-4,7-endomethylen-1,3,4,5,6,7-hexahydro-1-oxoisoindole]",,
